Results: patent US12428406B2 (PMV Pharmaceuticals, Inc., priority 2019, dated 2025)

Molecular target: T1, p53 Y220C (Homo sapiens, UniProt P04637, Y220C)
T1 construct: The recombinant protein was a truncation mutant containing only amino acids 94-312 of p53; made in house; host or cells: E. coli
Experiment: In vitro DNA binding activity assay (HTRF / TR-FRET): stabilization of p53 Y220C and increase of its DNA binding activity
Assay type: biochemical
Details: recombinant His-tagged p53 Y220C DNA binding domain (aa 94-312), biotin-labeled consensus DNA, incubated at 27° C. or 29° C. for 60 min
Method in brief: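 Compound effect on DNA binding of recombinant His-p53 Y220C (E. coli) to biotin-labeled consensus DNA, expressed as SC150, the concentration giving 50% increase versus untreated. Serial 3-fold DMSO dilutions of 4.5 mM stocks; room-temperature steps of 15 then 20 min.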

T1 sequence (P04637 94-312, change not shown): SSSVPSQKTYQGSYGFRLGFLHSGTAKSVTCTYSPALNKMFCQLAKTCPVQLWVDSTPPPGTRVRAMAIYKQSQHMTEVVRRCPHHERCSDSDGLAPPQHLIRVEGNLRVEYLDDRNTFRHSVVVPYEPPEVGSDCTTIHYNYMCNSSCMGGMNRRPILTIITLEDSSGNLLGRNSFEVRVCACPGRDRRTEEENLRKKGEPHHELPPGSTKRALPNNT

**Q.** `COCC(O)CNC(=O)c1ccc(NCC#Cc2cc3c(N[C@H]4CCN(C)C[C@H]4F)cccc3n2CC(F)(F)F)c(OC)c1` (mixture of isomers) [Compound 816A] was tested. Which “SC150 (concentration of the compound required to increase the DNA binding activity by 50%)” value did it give?
**A.** Its value is “+ (+ = 0 μM ≤ SC150 < 0.05 μM)”.

**Q.** For `COCC(O)CN1CCC(Nc2cccc3c2cc(C#CCNc2ccc(S(C)(=O)=O)cc2OC(F)(F)F)n3CC(F)(F)F)CC1` (centres unmarked) [Compound 710A, 1-(4-{[2-(3-{[4-methanesulfonyl-2-(trifluoromethoxy)phenyl]amino}prop-1-yn-1-yl)-1-(2,2,2-trifluoroethyl)-1H-indol-4-yl]amino}piperidin-1-yl)-3-methoxypropan-2-ol], which “SC150 (concentration of the compound required to increase the DNA binding activity by 50%)” value is on record?
**A.** Its value is “+ (+ = 0 μM ≤ SC150 < 0.05 μM)”.

**Q.** How did the “SC150 (concentration of the compound required to increase the DNA binding activity by 50%)” value turn out when `CN1CC[C@@H](Nc2cccc3c2cc(C#CCO)n3CC(F)(F)F)[C@@H](F)C1` [Compound 895A, 3-(4-(((3S,4R)-3-fluoro-1-methylpiperidin-4-yl)amino)-1-(2,2,2-trifluoroethyl)-1H-indol-2-yl)prop-2-yn-1-ol] was run?
**A.** The value was “+++ (+++ = 0.1 μM ≤ SC150 < 0.2 μM)”.

**Q.** How did the “SC150 (concentration of the compound required to increase the DNA binding activity by 50%)” value turn out when `CN1CCC(Nc2cccc3c2cc(C#CCNc2ccc(C(=O)N(C)C)s2)n3CC(F)(F)F)CC1` [Compound 525A, N,N-dimethyl-5-((3-(4-((1-methylpiperidin-4-yl)amino)-1-(2,2,2-trifluoroethyl)-1H-indol-2-yl)prop-2-yn-1-yl)amino)thiophene-2-carboxamide] was run?
**A.** The value was “+ (+ = 0 μM ≤ SC150 < 0.05 μM)”.

**Q.** For `COc1cc(C(F)(F)F)ccc1NCC#Cc1cc2c(N[C@H]3CC[C@H](N4CC5(COC5)C4)CC3)cccc2n1CC(F)(F)F` [Compound 277A, 2-(3-{[2-methoxy-4-(trifluoromethyl)phenyl]amino}prop-1-yn-1-yl)-N-[(1R,4R)-4-{2-oxa-6-azaspiro[3.3]heptan-6-yl}cyclohexyl]-1-(2,2,2-trifluoroethyl)-1H-indol-4-amine], which “SC150 (concentration of the compound required to increase the DNA binding activity by 50%)” value is on record?
**A.** Its value is “++ (++ = 0.05 μM ≤ SC150 < 0.1 μM)”.

**Q.** How did the “SC150 (concentration of the compound required to increase the DNA binding activity by 50%)” value turn out when `CN(C)[C@H]1CC[C@H](Nc2cccc3c2cc(C#CCNc2ccc(S(C)(=O)=O)cc2C(F)(F)F)n3CC(F)(F)F)CC1` [Compound 139A, (1R,4R)-N^4-[2-(3-{[4-methanesulfonyl-2-(trifluoromethyl)phenyl]amino}prop-1-yn-1-yl)-1-(2,2,2-trifluoroethyl)-1H-indol-4-yl]-N^1,N^1-dimethylcyclohexane-1,4-diamine] was run?
**A.** Its value is “+ (+ = 0 μM ≤ SC150 < 0.05 μM)”.

**Q.** `COc1cc(S(=O)(=O)Nc2cc(C)on2)ccc1NCC#Cc1cc2c(N[C@H]3CC[C@@H](N(C)C)CC3)cccc2n1CC(F)(F)F` [Compound 54A, 3-methoxy-N-(5-methyl-1,2-oxazol-3-yl)-4-{[3-(4-{[(1S,4S)-4-(dimethylamino)cyclohexyl]amino}-l-(2,2,2-trifluoroethyl)-1H-indol-2-yl)prop-2-yn-1-yl]amino}benzene-1-sulfonamide] was tested. Which “SC150 (concentration of the compound required to increase the DNA binding activity by 50%)” value did it give?
**A.** The value was “+ (+ = 0 μM ≤ SC150 < 0.05 μM)”.

**Q.** For `COc1cc(S(C)(=O)=O)ccc1NCC#Cc1cc2c(N[C@@H]3CCN(C)C[C@@H]3OC)cccc2n1CC(F)(F)F` [Compound 532A, 2-{3-[(4-methanesulfonyl-2-methoxyphenyl)amino]prop-1-yn-1-yl}-N-[(3S,4R)-3-methoxy-1-methylpiperidin-4-yl]-1-(2,2,2-trifluoroethyl)-1H-indol-4-amine], which “SC150 (concentration of the compound required to increase the DNA binding activity by 50%)” value is on record?
**A.** The value was “++ (++ = 0.05 μM ≤ SC150 < 0.1 μM)”.

**Q.** For `CNC(=O)c1ccc(NCC#Cc2cc3c(N[C@H]4CC[C@@](C)(O)CC4)cccc3n2CC(F)(F)F)c(OC)c1` [Compound 32A, 3-methoxy-N-methyl-4-{[3-(4-{[(1S,4S)-4-hydroxy-4-methylcyclohexyl]amino}-1-(2,2,2-trifluoroethyl)-1H-indol-2-yl)prop-2-yn-1-yl]amino}benzamide], which “SC150 (concentration of the compound required to increase the DNA binding activity by 50%)” value is on record?
**A.** The value was “+ (+ = 0 μM ≤ SC150 < 0.05 μM)”.

**Q.** With `CS(=O)(=O)c1ccc(NCC#Cc2cc3c(N[C@H]4CC[C@H](N5CCC6(CC5)COC6)CC4)cccc3n2CC(F)(F)F)c(OCC#N)c1` [Compound 389A, 2-(5-methanesulfonyl-2-{[3-(4-{[(1R,4R)-4-{2-oxa-7-azaspiro[3.5]nonan-7-yl}cyclohexyl]amino}-1-(2,2,2-trifluoroethyl)-1H-indol-2-yl)prop-2-yn-1-yl]amino}phenoxy)acetonitrile] as the compound, how does the “SC150 (concentration of the compound required to increase the DNA binding activity by 50%)” value read?
**A.** The value was “+ (+ = 0 μM ≤ SC150 < 0.05 μM)”.

**Q.** `CCNC(=O)c1ccc(NCC#Cc2cc3c(N[C@H]4CC[C@H](N5CCOCC5)CC4)cccc3n2CC(F)(F)F)c(OC)c1` [Compound 183A, N-ethyl-3-methoxy-4-{[3-(4-{[(1R,4R)-4-(morpholin-4-yl)cyclohexyl]amino}-1-(2,2,2-trifluoroethyl)-1H-indol-2-yl)prop-2-yn-1-yl]amino}benzamide] was tested. Which “SC150 (concentration of the compound required to increase the DNA binding activity by 50%)” value did it give?
**A.** The value was “+ (+ = 0 μM ≤ SC150 < 0.05 μM)”.

**Q.** For `CC(C)C(=O)Oc1cc(S(C)(=O)=O)ccc1NCC#Cc1cc2c(N[C@H]3CC[C@H](N4CC5(COC5)C4)CC3)cccc2n1CC(F)(F)F` [Compound 228A, 5-methanesulfonyl-2-{[3-(4-{[(1R,4R)-4-{2-oxa-6-azaspiro[3.3]heptan-6-yl}cyclohexyl]amino}-1-(2,2,2-trifluoroethyl)-1H-indol-2-yl)prop-2-yn-1-yl]amino}phenyl 2-methylpropanoate], which “SC150 (concentration of the compound required to increase the DNA binding activity by 50%)” value is on record?
**A.** The value was “+ (+ = 0 μM ≤ SC150 < 0.05 μM)”.

**Q.** Which “SC150 (concentration of the compound required to increase the DNA binding activity by 50%)” value does the source give for `CCS(=O)(=O)c1ccc(NCC#Cc2cc3c(N[C@H]4CC[C@H](N(C)C)CC4)cccc3n2CC(F)(F)F)c(OC)c1` [Compound 119A, (1R,4R)—N^4-[2-(3-{[4-(ethanesulfonyl)-2-methoxyphenyl]amino}prop-1-yn-1-yl)-1-(2,2,2-trifluoroethyl)-1H-indol-4-yl]-N^1,N^1-dimethylcyclohexane-1,4-diamine] here?
**A.** Its value is “+ (+ = 0 μM ≤ SC150 < 0.05 μM)”.

**Q.** How did the “SC150 (concentration of the compound required to increase the DNA binding activity by 50%)” value turn out when `COc1cc(S(=O)(=O)N(C)C)ccc1NCC#Cc1cc2c(NC3CCOCC3)cccc2n1CC(F)(F)F` [Compound 999A, 3-methoxy-N,N-dimethyl-4-[(3-{4-[(oxan-4-yl)amino]-1-(2,2,2-trifluoroethyl)-1H-indol-2-yl}prop-2-yn-1-yl)amino]benzene-1-sulfonamide] was run?
**A.** Its value is “+ (+ = 0 μM ≤ SC150 < 0.05 μM)”.

**Q.** With `COc1cc(S(N)(=O)=O)ccc1NCC#Cc1cc2c(NC3CCN(CCOC(C)=O)CC3)cccc2n1CC(F)(F)F` [Compound 618A] as the compound, how does the “SC150 (concentration of the compound required to increase the DNA binding activity by 50%)” value read?
**A.** The value was “+ (+ = 0 μM ≤ SC150 < 0.05 μM)”.

**Q.** How did the “SC150 (concentration of the compound required to increase the DNA binding activity by 50%)” value turn out when `CS(=O)(=O)c1ccc(NCC#Cc2cc3c(N[C@H]4CC[C@H](N5CC6CC(C5)O6)CC4)cccc3n2CC(F)(F)F)c(OCC#N)c1` [Compound 407A, 2-(5-methanesulfonyl-2-{[3-(4-{[(1R,4R)-4-{6-oxa-3-azabicyclo[3.1.1]heptan-3-yl}cyclohexyl]amino}-1-(2,2,2-trifluoroethyl)-1H-indol-2-yl)prop-2-yn-1-yl]amino}phenoxy)acetonitrile] was run?
**A.** The value was “+ (+ = 0 μM ≤ SC150 < 0.05 μM)”.

**Q.** How did the “SC150 (concentration of the compound required to increase the DNA binding activity by 50%)” value turn out when `NS(=O)(=O)c1ccc(NCC#Cc2cc3c(N[C@H]4CC[C@H](N5CC6(COC6)C5)CC4)cccc3n2CC(F)(F)F)c(OCF)c1` [Compound 261A, 3-(fluoromethoxy)-4-{[3-(4-{[(1R,4R)-4-{2-oxa-6-azaspiro[3.3]heptan-6-yl}cyclo-hexyl]amino}-1-(2,2,2-trifluoroethyl)-1H-indol-2-yl)prop-2-yn-1-yl]amino}benzene-1-sulfonamide] was run?
**A.** Its value is “+ (+ = 0 μM ≤ SC150 < 0.05 μM)”.

**Q.** How did the “SC150 (concentration of the compound required to increase the DNA binding activity by 50%)” value turn out when `COCCNC(=O)c1ccc(NCC#Cc2cc3c(NC4CCN(C)CC4)cccc3n2CC(F)(F)F)c(OC)c1` [Compound 497A] was run?
**A.** Its value is “+ (+ = 0 μM ≤ SC150 < 0.05 μM)”.

**Q.** `COCC(O)CN1CCC(Nc2cccc3c2cc(C#CCNc2cc(S(C)(=O)=O)ccc2OC)n3CC(F)(F)F)CC1` (centres unmarked) [Compound 670A, 1-{4-[(2-{3-[(5-methanesulfonyl-2-methoxyphenyl)amino]prop-1-yn-1-yl}-1-(2,2,2-trifluoroethyl)-1H-indol-4-yl)amino]piperidin-1-yl}-3-methoxypropan-2-ol] was tested. Which “SC150 (concentration of the compound required to increase the DNA binding activity by 50%)” value did it give?
**A.** Its value is “++++ (++++ = 0.2 μM ≤ SC150 < 1 μM)”.

**Q.** Which “SC150 (concentration of the compound required to increase the DNA binding activity by 50%)” value does the source give for `COc1cc(S(N)(=O)=O)ccc1NCC#Cc1cc2c(NC3CCN(CC(C)OC(C)=O)CC3)cccc2n1CC(F)(F)F` (centres unmarked) [Compound 599A, 1-{4-[(2-{3-[(2-methoxy-4-sulfamoylphenyl)amino]prop-1-yn-1-yl}-1-(2,2,2-trifluoroethyl)-1H-indol-4-yl)amino]piperidin-1-yl}propan-2-yl acetate] here?
**A.** Its value is “+ (+ = 0 μM ≤ SC150 < 0.05 μM)”.

**Q.** Which “SC150 (concentration of the compound required to increase the DNA binding activity by 50%)” value does the source give for `CNC(=O)c1ccc(NCC#Cc2cc3c(NC4CCN(C[C@H](CO)OC)CC4)cccc3n2CC(F)(F)F)c(OC)c1` [Compound 649A, 4-({3-[4-({1-[(2R)-3-hydroxy-2-methoxypropyl]piperidin-4-yl}amino)-1-(2,2,2-trifluoroethyl)-1H-indol-2-yl]prop-2-yn-1-yl}amino)-3-methoxy-N-methylbenzamide] here?
**A.** The value was “+ (+ = 0 μM ≤ SC150 < 0.05 μM)”.

**Q.** Which “SC150 (concentration of the compound required to increase the DNA binding activity by 50%)” value does the source give for `COc1cc(S(C)(=O)=O)ccc1NCC#Cc1cc2c(N[C@@H]3CCN4CCC[C@@H]4C3)cccc2n1CC(F)(F)F` [Compound 765A, N-[(7R,8aR)-octahydroindolizin-7-yl]-2-{3-[(4-methanesulfonyl-2-methoxyphenyl)amino]prop-1-yn-1-yl}-1-(2,2,2-trifluoroethyl)-1H-indol-4-amine] here?
**A.** Its value is “+ (+ = 0 μM ≤ SC150 < 0.05 μM)”.

**Q.** With `CN1CCC(Nc2cccc3c2cc(C#CCNc2ccc(S(C)(=O)=O)cc2OCC#N)n3CC(F)(F)F)CC1` [Compound 489A, 2-{5-methanesulfonyl-2-[(3-{4-[(1-methylpiperidin-4-yl)amino]-1-(2,2,2-trifluoroethyl)-1H-indol-2-yl}prop-2-yn-1-yl)amino]phenoxy} acetonitrile] as the compound, how does the “SC150 (concentration of the compound required to increase the DNA binding activity by 50%)” value read?
**A.** The value was “+ (+ = 0 μM ≤ SC150 < 0.05 μM)”.
